Test results reported in patent US20070280982A1, “Antimicrobial compositions comprising hop acid alkali salts and uses thereof” (priority 2006, published 2007).

Legend:
[1] = tested on: Bacillus subtilis; details: cited from earlier work
[2] = tested on: B. subtilis; assay: Shelf-life extension (bacteriostatic) assay, broth dilution, FIG. 1 and FIG. 3; format: cell-based, Bacillus subtilis; details: glycine alone versus combined with beta acid sodium salts
Protocol: Shelf-life extension assays were performed using the broth dilution method. Final inoculum concentration was […]. Microbial growth was assayed with a spectrophotometer by monitoring the absorption at 600 nm after 2 to 3 days. […] After incubation, colonies were counted.

NCC(=O)O [Glycine]
Known activity against Bacillus subtilis [1]: relatively weak activity
Effect on bacterial growth, alone or in combination (FIG. 3) [2]: almost no effect on bacterial growth
